According to US11076595B2, “1-(n,n-disubstituted carbamoyl) 4-(substituted sulfonyl)triazolin-5-one derivative, 4-(n,n-disubstituted carbamoyl) 1-(substituted sulfonyl)triazolin-5-one derivative, and herbicide containing said derivative as active ingredient” (HOKKO CHEMICAL INDUSTRY CO., LTD., priority 2017, dated 2021):

Key:
Type in all cases: in vivo
crabgrass = assay: Test Example 13: herbicidal effect test by soil treatment in upland field; conditions: 120 g/10a, 14 days after treatment
Protocol: (§1) A pot having a size of 36 cm^2 was filled with field soil (alluvial soil) and after mixing the soil of the surface layer of 1 cm with 20 grains of each weed seed of crabgrass, Echinochloa crus-galli, Chenopodium album and Amaranthus viridis, the surface layer was pressed lightly. One day after the sowing, an emulsifiable concentrate prepared according to Formulation Example 15 by using the compound shown in Table 11 below was diluted with water, and the water-diluted formulation was sprayed on the soil surface at a ratio of 100 liter per 10 are. The application rate of the active ingredient, by conversion, corresponded to 120 g per 10 are. Fourteen Days after the formulation treatment, the herbicidal effect was evaluated by the same criteria as in Test Example 11.

Echinochloa crus-galli [1] = assay: as above; conditions: 120 g/10a, 14 days after treatment
Protocol: as §1

Chenopodium album = assay: as above; conditions: 120 g/10a, 14 days after treatment
Protocol: as §1

Amaranthus viridis = assay: as above; conditions: 120 g/10a, 14 days after treatment
Protocol: as §1

Lindernia pyxidaria [2] = assay: Test Example 12: herbicidal effect test by treatment during growing period in paddy field; conditions: 120 g/10a; treatment seven days after sowing in flooded paddy pot; assessed 14 days after treatment
Summary of the method: (§2)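 Read-out: weed suppression (%) = (1 − treated/untreated mean dry weight) × 100, scored 14 days after treatment with two replications. Pots held puddled paddy soil, 30 seeds per species sown 0–1 cm, flooded ~3 cm. Post-emergence dropwise water application at 7 days after sowing, 120 g a.i./10 are.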

Monochoria vaginalis [3] = assay: as above; conditions: 120 g/10a; treatment seven days after sowing in flooded paddy pot; assessed 14 days after treatment
Summary of the method: as §2

Scirpus juncoides [4] = assay: as above; conditions: 120 g/10a; treatment seven days after sowing in flooded paddy pot; assessed 14 days after treatment
Summary of the method: as §2

Echinochloa crus-galli [5] = assay: as above; conditions: 120 g/10a; treatment seven days after sowing in flooded paddy pot; assessed 14 days after treatment
Summary of the method: as §2

Lindernia pyxidaria [6] = assay: Test Example 11: herbicidal effect test by soil treatment in paddy field; conditions: 120 g/10a active ingredient, 14 days after treatment
Summary of the method: (§3)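 Seeds were sown 0-1 cm deep in puddled, fertilised paddy soil in Wagner pots and kept under about 3 cm of flooding in a greenhouse. Diluted emulsifiable concentrate was added dropwise right after sowing at 120 g a.i. per 10 are. Suppression (%) came from dry weight versus untreated pots after 14 days, two replicates.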

Monochoria vaginalis [7] = assay: as above; conditions: 120 g/10a active ingredient, 14 days after treatment
Summary of the method: as §3

Scirpus juncoides [8] = assay: as above; conditions: 120 g/10a active ingredient, 14 days after treatment
Summary of the method: as §3

Echinochloa crus-galli [9] = assay: as above; conditions: 120 g/10a active ingredient, 14 days after treatment
Summary of the method: as §3

SMILES | herbicidal effect, Crabgrass (crabgrass) [%] | herbicidal effect, Echinochloa crus-galli (Echinochloa crus-galli [1]) [%] | herbicidal effect, Chenopodium album (Chenopodium album) [%] | herbicidal effect, Amaranthus viridis (Amaranthus viridis) [%] | Weed suppression rate (%) Lindemia pyxidaria (Lindernia pyxidaria [2]) [%] | Weed suppression rate (%) Monochoria vaginalis (Monochoria vaginalis [3]) [%] | Weed suppression rate (%) Scirpus juncoides (Scirpus juncoides [4]) [%] | Weed suppression rate (%) Echinochloa crus-galli (Echinochloa crus-galli [5]) [%] | Weed suppression rate (%) Lindemia pyxidaria (Lindernia pyxidaria [6]) [%] | Weed suppression rate (%) Monochoria vaginalis (Monochoria vaginalis [7]) [%] | Weed suppression rate (%) Scirpus juncoides (Scirpus juncoides [8]) [%] | Weed suppression rate (%) Echinochloa crus-galli (Echinochloa crus-galli [9]) [%]
Cc1cc(F)ccc1N(C(=O)n1cnn(S(C)(=O)=O)c1=O)C(C)C [Compound 11-25] | 100 | 80 | 30 | 30 | 70 | 70 | 100 | 100 | 70 | 60 | 90 | 90
Cc1cc(F)ccc1N(C(=O)n1cnn(S(=O)(=O)c2ccc(F)cc2)c1=O)C(C)C [Compound 11-488] | 70 | 60 | 60 | 60 | 100 | 100 | 80 | 100 | 100 | 80 | 100 | 100
CC(C)N(C(=O)n1cnn(S(=O)(=O)c2ccc(Br)cc2)c1=O)c1ccc(F)cc1F [Compound 11-616] | 40 | 80 | 80 | 80 | 80 | 80 | 60 | 50 | 90 | 90 | 90 | 90
Cc1ccc(N(C(=O)n2cnn(S(=O)(=O)C3CCCCC3)c2=O)C(C)C)c(F)c1 [Compound 11-308] | 90 | 80 | 80 | 90 | 80 | 80 | 90 | 90 | 90 | 90 | 90 | 90
CC(C)N(C(=O)n1cnn(S(=O)(=O)c2c(F)c(F)c(F)c(F)c2F)c1=O)c1ccc(F)cc1Cl [Compound 11-818] | 100 | 100 | 60 | 60 | 80 | 100 | 100 | 100 | 100 | 100 | 100 | 100
CC(C)N(C(=O)n1cnn(S(=O)(=O)c2ccccc2)c1=O)c1ccc(F)cc1 [Compound 11-358] | 90 | 80 | 80 | 90 | 80 | 80 | 90 | 90 | 80 | 80 | 90 | 90
CCN(CC)C(=O)n1cnn(S(=O)(=O)c2ccccc2C(F)(F)F)c1=O [Compound 11-710] | 80 | 100 | 60 | 40 | 40 | 40 | 40 | 80 | 40 | 40 | 40 | 70
